“And” between values parts separate entries of the source, which are not always exact repeats. Equal entries are not always repeated.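 Where inhibition never reached the appropriate level, the endpoint shown equals the highest concentration tested. Otherwise, values were interpolated linearly from a five-concentration, 48-hour dose response in 96-well plates. GI50 = concentration required for 50% inhibition of growth. At the TGI there is no net growth.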

Some test systems named below: DU-145 prostate; HCC-2998 colon; HOP-92 NSCLC; MDA-MB-231 breast; MDA-MB-435; NCI-H23 lung; SF-268 CNS; SK-OV-3 ovarian; SN12C renal; SW-620 colon.
Common to all, as to assay: DTP human tumour cell line panel, 48 h

The TGI is the concentration at which net growth stops. Regarding `CC1(C)COCN1COC1CCCCC1`, the TGI in the experiment with DU-145 prostate, in the experiment on HCC-2998 colon, in the experiment on HOP-92 NSCLC, in the experiment with MDA-MB-231 breast, in the experiment on MDA-MB-435 and in the experiment with NCI-H23 lung was above 100 µM throughout. Further, the TGI with SF-268 CNS, in the experiment on SK-OV-3 ovarian, in the experiment on SN12C renal and with SW-620 colon was above 100 µM in each case.

Consider `O=C1C(Cl)=C(Oc2ccc([N+](=O)[O-])cc2)C(=O)c2c(O)ccc(O)c21`, for which the TGI with DU-145 prostate was above 100 µM; in the experiment on HCC-2998 colon, above 100 µM; in the experiment on HOP-92 NSCLC, 56.6 µM; in the experiment with MDA-MB-231 breast, 66 µM; with MDA-MB-435, above 67.8 µM; in the experiment on NCI-H23 lung it was above 100 µM. The TGI in the experiment with SF-268 CNS is above 100 µM; with SK-OV-3 ovarian, above 100 µM; with SN12C renal, above 100 µM; in the experiment on SW-620 colon it was above 80.9 µM.

Broadly, the GI50 is the concentration that inhibits growth by half. Take `CN(NC(=O)CC(=O)NN(C)C(=S)c1ccccc1)C(=S)c1ccccc1`: the GI50 in the experiment with DU-145 prostate was above 59.2 µM; in the experiment on MDA-MB-231 breast, above 100 µM; with MDA-MB-435, above 84.4 µM; in the experiment with NCI-H23 lung it was above 87.4 µM; in the experiment on SF-268 CNS it was 67.2 µM; in the experiment with SN12C renal it was above 100 µM. The TGI in the experiment on DU-145 prostate, in the experiment on HCC-2998 colon, in the experiment on HOP-92 NSCLC, in the experiment on MDA-MB-231 breast, in the experiment on MDA-MB-435 and with NCI-H23 lung was above 100 µM each time. Also, the TGI with SF-268 CNS, in the experiment on SK-OV-3 ovarian, in the experiment on SN12C renal and with SW-620 colon was above 100 µM in each case.

Consider `CCN(CC)CCOc1ccc(Nc2ncc3cc(-c4ccc(O)cc4)c(=O)n(C)c3n2)cc1`, for which the GI50 is 12.9 µM in the experiment with DU-145 prostate; 15.4 µM in the experiment on HCC-2998 colon; 12.9 µM in the experiment with HOP-92 NSCLC; 1.17 µM with MDA-MB-231 breast; 0.983 µM in the experiment on MDA-MB-435; 12.7 µM in the experiment with NCI-H23 lung. For the same compound, the GI50 in the experiment with SF-268 CNS was 1.19 µM; with SK-OV-3 ovarian, 0.0791 µM; in the experiment on SN12C renal, 0.212 µM; with SW-620 colon, 2.01 µM. Moreover, the concentration for total growth inhibition (TGI) is 26.3 µM with DU-145 prostate; 30.5 µM in the experiment on HCC-2998 colon; 31.1 µM in the experiment on HOP-92 NSCLC; 7.36 µM with MDA-MB-231 breast; 16.1 µM in the experiment on MDA-MB-435; 36.2 µM in the experiment on NCI-H23 lung. Further, the TGI is 20.9 µM in the experiment on SF-268 CNS, 24.8 µM with SK-OV-3 ovarian, 21.2 µM in the experiment with SN12C renal and 4.01 µM in the experiment on SW-620 colon.

Turning to `C/C=C(\C)C(=O)N[C@H]1[C@@H](OC(C)=O)C[C@]2(C)C3CC[C@@]4(C)C(CC[C@@H]4C(C)N(C)C)C3CCC2[C@H]1O` (stereo partly specified), the GI50 is 6.4 µM in the experiment on DU-145 prostate; 7.15 µM with HCC-2998 colon; 1.04 µM with HOP-92 NSCLC; 3.23 µM in the experiment with MDA-MB-231 breast; 2.27 µM in the experiment on MDA-MB-435; 11.7 µM with NCI-H23 lung. For the same compound, the GI50 is 2.9 µM with SF-268 CNS, 7.95 µM in the experiment with SK-OV-3 ovarian, 5.55 µM with SN12C renal and 2.63 µM in the experiment with SW-620 colon. In addition, the TGI was determined as 21.3 µM in the experiment with DU-145 prostate; 21.7 µM with HCC-2998 colon; 15.5 µM in the experiment on HOP-92 NSCLC; 10.7 µM in the experiment with MDA-MB-231 breast; 6.78 µM in the experiment with MDA-MB-435; 28.2 µM in the experiment on NCI-H23 lung. For the same compound, the TGI turned out to be 13.3 µM in the experiment on SF-268 CNS, 22.5 µM in the experiment on SK-OV-3 ovarian, 19.6 µM in the experiment with SN12C renal and 9.44 µM in the experiment with SW-620 colon.

With `CC(=O)C1CC2(c3ccc(C)cc3)C(c3ccc(C)cc3)=C(c3ccc(C)cc3)C1(c1ccc(C)cc1)S2=O` (stereo unspecified), the GI50 in the experiment on DU-145 prostate, in the experiment with HCC-2998 colon, with MDA-MB-231 breast, in the experiment on MDA-MB-435, with NCI-H23 lung and in the experiment on SF-268 CNS was above 100 µM throughout. In addition, the GI50 in the experiment with SK-OV-3 ovarian, with SN12C renal and in the experiment with SW-620 colon was above 100 µM each time. Besides, the TGI in the experiment with DU-145 prostate, with HCC-2998 colon, in the experiment with MDA-MB-231 breast, with MDA-MB-435, in the experiment with NCI-H23 lung and in the experiment on SF-268 CNS was above 100 µM each time. The concentration for total growth inhibition (TGI) in the experiment on SK-OV-3 ovarian, in the experiment with SN12C renal and in the experiment with SW-620 colon was above 100 µM throughout.

For `C=C1C(=O)O[C@@H]2C1C[C@@H](O)/C(C)=C/C/C=C(\C)CCC[C@H](C)[C@H]2OC(C)=O` (stereo partly specified), the GI50 in the experiment on DU-145 prostate was 20.4 µM; in the experiment on HCC-2998 colon, 31.7 µM; with MDA-MB-231 breast it was 24.3 µM; in the experiment on MDA-MB-435 it was 24.4 µM; with NCI-H23 lung, 27.1 µM; in the experiment on SF-268 CNS it was 33.9 µM. The GI50 in the experiment on SK-OV-3 ovarian is 69.3 µM; with SN12C renal it was 27.2 µM; in the experiment on SW-620 colon it was 26 µM. The concentration for total growth inhibition (TGI) in the experiment with DU-145 prostate is 45.4 µM; in the experiment on HCC-2998 colon it was above 100 µM; in the experiment on MDA-MB-231 breast, 49.6 µM; with MDA-MB-435, 58 µM; in the experiment on NCI-H23 lung, 86.2 µM; in the experiment on SF-268 CNS, above 100 µM. Moreover, the TGI in the experiment on SK-OV-3 ovarian is above 100 µM; in the experiment on SN12C renal, 66.3 µM; with SW-620 colon it was 58.9 µM.

As to `N#CC1=C(N)N=C(N2CCCCC2)C(C#N)C12Nc1ccccc1S2` (stereo unspecified), the GI50 is 43 µM in the experiment with DU-145 prostate; 26.9 µM in the experiment with HOP-92 NSCLC; 17.1 µM with MDA-MB-231 breast; 0.0184 µM in the experiment on MDA-MB-435; 16.7 µM in the experiment on NCI-H23 lung; 18.9 µM in the experiment with SF-268 CNS. The GI50 with SK-OV-3 ovarian is 39.1 µM; in the experiment on SN12C renal, 24.8 µM; in the experiment with SW-620 colon it was 38.4 µM. The TGI is above 100 µM with DU-145 prostate; above 100 µM in the experiment on HOP-92 NSCLC; 58.7 µM in the experiment on MDA-MB-231 breast; 14.3 µM with MDA-MB-435; 52.8 µM in the experiment with NCI-H23 lung; 67.2 µM in the experiment on SF-268 CNS. In addition, the TGI with SK-OV-3 ovarian, in the experiment on SN12C renal and in the experiment with SW-620 colon was above 100 µM throughout.

With `O=C1/C(=C/c2ccc(O)c([N+](=O)[O-])c2)CCC/C1=C\c1ccc(O)c([N+](=O)[O-])c1`, the GI50 with DU-145 prostate was 2.99 µM; in the experiment with MDA-MB-231 breast it was 16.4 µM; in the experiment with MDA-MB-435, 1.53 µM; in the experiment with NCI-H23 lung, 8.14 µM; with SK-OV-3 ovarian, 22.2 µM; in the experiment on SN12C renal, 46.2 µM. Further, in the experiment on SW-620 colon, the GI50 was 30.1 µM. For the same compound, the TGI in the experiment with DU-145 prostate is 20.3 µM and 15.3 µM; in the experiment on HCC-2998 colon, 16 µM; in the experiment on MDA-MB-231 breast, 50 µM and 39.3 µM; with MDA-MB-435, 21.3 µM and 5.35 µM; in the experiment with NCI-H23 lung, 32.6 µM and 25.2 µM; in the experiment on SF-268 CNS, 19.9 µM. Also, the TGI in the experiment with SK-OV-3 ovarian is 50 µM and > 100 µM; in the experiment on SN12C renal, 26.2 µM and > 100 µM; in the experiment with SW-620 colon, 50 µM and 99.2 µM.
